In PubChem BioAssay (NCI):
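48-hour exposure; five concentrations; linearly interpolated endpoints. The concentration for 50% growth inhibition is given as GI50. Definition used: TGI = concentration required for complete inhibition of growth.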

Experiments:
Assay in all cases: inhibition of tumour cell growth, NCI panel, 48 h
CCRF-CEM leukemia = test system: CCRF-CEM leukemia
LOX IMVI melanoma = test system: LOX IMVI melanoma
SF-295 CNS = test system: SF-295 CNS
NCI-H460 lung = test system: NCI-H460 lung
MCF7 breast = test system: MCF7 breast
TK-10 renal = test system: TK-10 renal
NCI-H226 lung = test system: NCI-H226 lung
MDA-MB-435 = test system: MDA-MB-435
OVCAR-5 ovarian = test system: OVCAR-5 ovarian
MALME-3M melanoma = test system: MALME-3M melanoma

SMILES	TGI (CCRF-CEM leukemia) [µM]	TGI (LOX IMVI melanoma) [µM]	TGI (SF-295 CNS) [µM]	TGI (NCI-H460 lung) [µM]	TGI (MCF7 breast) [µM]	TGI (TK-10 renal) [µM]	TGI (NCI-H226 lung) [µM]	TGI (MDA-MB-435) [µM]	TGI (OVCAR-5 ovarian) [µM]	TGI (MALME-3M melanoma) [µM]	GI50 (CCRF-CEM leukemia) [µM]	GI50 (LOX IMVI melanoma) [µM]	GI50 (SF-295 CNS) [µM]	GI50 (NCI-H460 lung) [µM]	GI50 (MCF7 breast) [µM]	GI50 (TK-10 renal) [µM]	GI50 (NCI-H226 lung) [µM]	GI50 (MDA-MB-435) [µM]	GI50 (OVCAR-5 ovarian) [µM]	GI50 (MALME-3M melanoma) [µM]
CCC(CO)Nc1nc(NCc2ccccc2)c2ncn(C(C)C)c2n1 (stereo not drawn)	> 86.8	> 100	50.9	> 100	> 57.3	> 84.6	39.4	> 68.1	> 69.1	59.3	–	–	–	–	–	–	–	–	–	–
CC[C@H](Nc1nc(C)nc(N)c1C#N)c1nc2cccc(NCc3ccc(C(=O)NO)cc3)c2c(=O)n1-c1ccccc1	9.21	3.04	3.14	3.78	5.89	7.86	4.44	3.74	3.32	4.05	0.551	1.65	1.66	1.79	2.07	2.43	1.72	1.93	1.51	1.48
CCC(O)(Cc1ccc(OC)cc1)c1ccc(OC)cc1 (stereo not drawn)	> 100	> 100	> 100	> 100	> 100	> 100	> 100	> 100	> 100	> 100	–	–	–	–	–	–	–	–	–	–
COC(=O)C1C(C(=O)OC)C2(OC(c3ccc(Cl)cc3)=CC2=O)C12OC(c1ccc(Cl)cc1)=CC2=O (stereo not drawn)	8.23	57.4	64.3	41.5	64.6	48.5	> 100	> 100	95.1	31.6	–	–	–	–	–	–	–	–	–	–
CCCCSc1nsc(N(C(=O)c2ccccc2)C(=O)c2ccccc2)n1	> 100	> 100	> 100	76.9	> 100	> 100	93.9	> 100	89.4	71.1	–	–	–	–	–	–	–	–	–	–
CC1C(NNc2ccccc2)Oc2cc3c(cc2C1c1ccccc1O)OCO3 (stereo not drawn)	13	28.6	3.49	18.5	16.8	18.3	33.2	12.5	19.1	10.4	–	–	–	–	–	–	–	–	–	–
CCc1c(CNc2ccc(C(=O)NC(CC(=O)O)C(=O)O)cc2)ccc2nc(N)nc(N)c12 (stereo not drawn)	> 1000	> 1000	> 1000	> 1000	> 1000	> 1000	> 1000	> 1000	> 1000	> 1000	–	–	–	–	–	> 1000	> 1000	–	–	0.179
COC(=O)Cc1ccc2c(cnn2-c2ccccc2)c1OC	> 10	> 10	> 10	> 10	> 10	> 10	> 10	> 10	> 10	> 10	–	–	–	–	–	–	–	–	–	–
CSc1nc(NC(C)C)c2c(n1)Sc1nc3ccccc3n1N=C2	> 100	> 100	24.1	79.5	60	36.8	> 100	70.3	> 100	38	–	–	–	–	–	–	–	–	–	–
C1=C2C3=[N+](CCCCC3)CC2Cc2ccsc21 (stereo not drawn)	> 100	> 100	> 100	> 100	> 100	> 100	> 100	> 100	> 100	> 100	–	–	–	–	–	–	–	–	–	–
CCCCC1=C(C(=O)N2CCOCC2)C2(OCCO2)C1=O	> 100	25.4	> 100	> 100	> 100	> 100	20.5	50.8	46.8	57	–	–	–	–	–	–	–	–	–	–
C=C1C(OC2O[C@@H]3O[C@@]4(C)CC[C@H]5[C@H](C)CC[C@@H](C2=C)[C@@]35O4)O[C@@H]2O[C@@]3(C)CC[C@H]4[C@H](C)CC[C@@H]1[C@@]24O3 (stereo partly drawn)	> 50	> 50	> 50	> 50	> 50	> 50	> 50	> 50	> 50	> 50	–	–	–	–	–	–	–	–	–	–
N#CC1(O)CCCCCCCCCCC1	> 100	> 100	> 100	> 100	> 100	> 100	> 100	> 100	> 100	> 100	–	–	–	–	–	–	–	–	–	–
CC1CCC2(NC1)OC1CC3C4CC=C5CC(OC6OC(CO)C(OC7OC(C)C(O)C(O)C7O)C(O)C6OC6OC(C)C(O)C(O)C6O)CCC5(C)C4CCC3(C)C1C2C (stereo not drawn)	> 55.7	19.9	3.94	9.16	4.88	15.1	7.97	5	16.1	9.23	–	–	–	–	–	–	–	–	–	–
C=C(C)OCOCCOC	> 100	> 100	> 100	> 100	> 100	> 100	> 100	> 100	> 100	> 100	–	–	–	–	–	–	–	–	–	–
COc1cccc2c1C(=O)c1c(O)c3c(c(O)c1C2=O)C[C@H](O)C[C@@H]3OC1CC(N)C(O)C(C)O1 (stereo partly drawn)	6.06	2.92	7.35	13.7	21.2	7.15	2.81	8.05	11.8	3.57	–	–	–	–	–	–	–	–	–	–
CC(C)c1cccc(C(C)C)c1NC(=O)/C(CC(=O)CC(c1ccccc1)c1c(O)c2ccccc2oc1=O)=N/O (stereo not drawn)	> 100	> 100	> 100	> 100	> 100	> 100	> 100	> 100	> 100	> 100	–	–	–	–	–	–	–	–	–	–

SMILES	TGI (CCRF-CEM leukemia) [µM]	TGI (LOX IMVI melanoma) [µM]	TGI (SF-295 CNS) [µM]	TGI (NCI-H460 lung) [µM]	TGI (MCF7 breast) [µM]	TGI (TK-10 renal) [µM]	TGI (NCI-H226 lung) [µM]	TGI (MDA-MB-435) [µM]	TGI (OVCAR-5 ovarian) [µM]	TGI (MALME-3M melanoma) [µM]	GI50 (CCRF-CEM leukemia) [µM]	GI50 (LOX IMVI melanoma) [µM]	GI50 (SF-295 CNS) [µM]	GI50 (NCI-H460 lung) [µM]	GI50 (MCF7 breast) [µM]	GI50 (TK-10 renal) [µM]	GI50 (NCI-H226 lung) [µM]	GI50 (MDA-MB-435) [µM]	GI50 (OVCAR-5 ovarian) [µM]	GI50 (MALME-3M melanoma) [µM]
COc1ccc2nc(/C(N)=C\C#N)ccc2c1	> 100	> 100	> 100	> 100	> 100	> 100	> 100	> 100	> 100	> 100	–	–	–	–	–	–	–	–	–	–
Cc1cc(C)c(S(=O)(=O)N(CCCN)OCCCON(CCCN)S(=O)(=O)c2c(C)cc(C)cc2C)c(C)c1	16.8	3.11	21.4	3.18	3.41	16.5	7.66	4.21	5.86	2.61	–	–	–	–	–	–	–	–	–	–
N#C/C(=C/n1c(=S)[nH]c2ccc([N+](=O)[O-])cc21)C(N)=O	> 100	> 100	> 100	> 100	> 100	> 100	> 100	> 100	> 100	> 100	–	–	–	–	–	–	–	–	–	–
CS(=O)(=O)Nc1ccc2c(c1)N(S(C)(=O)=O)CC2CCl (stereo not drawn)	> 100	> 100	> 100	> 100	> 100	> 100	> 100	> 100	> 100	> 100	–	–	–	–	–	–	–	–	–	–
Cc1cc2c(O)c(c1)CN(CC(=O)O)Cc1cc(C)cc(c1O)CN(CC(=O)O)Cc1cc(C)cc(c1O)CN(CC(=O)O)C2	> 100	> 100	> 100	> 100	> 100	> 100	> 100	> 100	> 100	> 100	–	–	–	–	–	–	–	–	–	–
CN1C(=O)N(C)C(O)C(Cl)(Br)C1=O (stereo not drawn)	> 100	> 100	> 100	> 100	> 100	> 100	> 100	> 100	> 100	> 100	–	–	–	–	–	–	–	–	–	–
Nc1nc(Cl)cc(NCC2(O)CC2)n1	> 100	> 100	> 100	> 100	> 100	> 100	> 100	> 100	> 100	> 100	–	–	–	–	–	–	–	–	–	–
C/C=C(/C)C(=O)OC1CC(C)[C@H]2CC(=O)C(C)=C2CC1C(C)(C)OC(C)=O (stereo partly drawn)	65.8	36.2	> 100	42.8	> 100	> 100	> 100	68.6	> 100	54	–	–	–	–	–	–	–	–	–	–
c1ccc2c(c1)Sc1nccc3ccnc-2c13	> 100	> 100	> 100	33.2	> 100	> 100	> 100	> 100	> 100	> 100	–	–	–	–	–	–	–	–	–	–
Cc1[nH]c(=O)nc(NCCNCCO)c1C(=O)Nc1cccc2cc3ccccc3cc12	> 100	> 100	> 100	> 100	> 44	> 100	> 100	> 100	> 100	> 100	–	–	–	–	–	–	–	–	–	–
O=C1C=CC(=O)c2c(O)c(N3CCC[C@H]3CO)c(Cl)c(O)c21	0.757	4.34	> 10	> 10	3.66	5.57	> 10	3.45	> 10	3.21	–	–	–	–	–	–	–	–	–	–
C[C@]12CCC(=O)[C@@H](CCC3=CC(=O)C=CC3=O)[C@@H]1CCC2=O	> 100	39.3	36.7	31.4	37.2	30.4	57.3	> 56.2	> 75.1	37.9	–	–	–	–	–	–	–	–	–	–
CC1=NN(c2nc(N)nc(-c3sccc3N)n2)C(C)(C)C1	> 100	> 100	> 100	> 100	> 100	> 100	> 100	> 100	> 100	> 100	–	–	–	–	–	–	–	–	–	–
O=c1[nH]c2nc3ccccc3nc2[nH]c1=O	> 100	> 100	> 100	> 100	> 100	> 100	> 100	> 100	> 100	> 100	–	–	–	–	–	–	–	–	–	–
COc1ccc(C2C3=C(COC3=O)Oc3cc4c(cc32)OCO4)c(OC)c1 (stereo not drawn)	> 100	> 100	29.8	> 100	> 100	> 100	> 100	5.49	> 100	> 100	–	–	–	–	–	–	–	–	–	–
CCn1c2ccc(C(=O)CCCN3CCCCC3)cc2c2cc(C(=O)CCCN3CCCCC3)ccc21	9.83	4.47	10.7	3.12	4.94	15.9	27.2	3.3	22.8	18.5	–	–	–	–	–	–	–	–	–	–
O=c1nc2c(c(-c3ccc(Br)cc3)[nH]1)COC/C2=C\c1ccc(Br)cc1	> 50	> 50	> 50	> 50	> 50	> 50	> 50	> 50	> 50	> 50	–	–	–	–	–	–	–	–	–	–
